Results reported in US20100184814A1, “Ester Derivatives of Losartan, Methods for Their Preparation, and Uses Thereof” (priority 2009, published 2010).

What was measured:
[1] = Pharmacokinetic study: plasma compound (II) (Losartan) after oral dosing of compounds of formula (I); format: in vivo; settings: male Kumin mice, fasted, single oral gavage dose 5.8 mg/kg referenced to compound (II)
Description: Pharmacokinetic studies. The pharmacokinetics (PK) of compounds of formula (I) as well as Losartan were investigated in male Kumin mice. There were six mice per group and nine groups for this study. All mice were fasted overnight, following a single dose of 5.8 mg/kg referenced to the amount of metabolite, the compound of formula (2) from every compound of formula (1) studied. All mice were given dosing orally by gavage. The dosing vehicle used was propyleneglycol:water (1:1). The mice were fed 4 h post dose. Blood samples were collected at 0, 15, 30, 45 min, 1, 2, 4, 7, 10 and 15 h oral dosing. Approximately […] of blood was collected from the jugular vein in tubes containing EDTA, and plasma was obtained by centrifugation. Plasma samples were stored at −20° C. until analysis. Samples were analyzed for the compound of formula (II), (1-((2′-(2H-tetrazol-5-yl)biphenyl-4-yl)methyl)-2-butyl-4-chloro-1H-imidazol-5-yl)methanol, by LC/MS/MS.

[2] = background statement on Losartan; cited from earlier work
[3] = compound (II) (Losartan) measured in plasma

CCCCc1nc(Cl)c(COC(=O)CN)n1Cc1ccc(-c2ccccc2-c2nn[nH]n2)cc1 [Compound (118), (S)-(1-((2′-(2H-tetrazol-5-yl)biphenyl-4-yl)methyl)-2-butyl-4-chloro-1H-imidazol-5-yl)methyl 2-aminoacetate]
Bioavailability of compound (II) [1, 3]: 19%
Half-time (T1/2) of compound (II) [1, 3]: 1.9 h
Cmax ([1]; compound (II) (Losartan) measured in plasma by LC/MS/MS, read-out: Maximum Blood Concentration (Cmax) of compound (II)): 504 nM

CCCCc1nc(Cl)c(CO)n1Cc1ccc(-c2ccccc2-c2nn[nH]n2)cc1 [Losartan, (1-((2′-(2H-tetrazol-5-yl)biphenyl-4-yl)methyl)-2-butyl-4-chloro-1H-imidazol-5-yl)methanol]
bioavailability [2]: 25-35%
half-life [2]: 1 to 2 h
